Data on eight molecules can be found in paper PMC12079475, “Identification, validation, and characterization of approved and investigational drugs interfering with the SARS‐CoV‐2 endoribonuclease Nsp15” (Protein Science : A Publication of the Protein Society, 2025).

Data set [1] has as its target T1, SARS‐CoV‐2 Nsp15 (Severe acute respiratory syndrome coronavirus 2, UniProt P0DTD1). In words: biochemical. It is filed as biochemical. The settings on record: for inhibition at 10 µM / Inhibition % +L-Cys 10 µM: L-cysteine buffer; for inhibition at 10 µM: read-out: Inhibition % +L-Cys 10 µM; for loss of the inhibition potency in L‐cysteine buffer: 1 mM L‐cysteine buffer compared with DTT buffer.

The target in data set [2] is T2, Nsp15 (Severe acute respiratory syndrome coronavirus 2, UniProt P0DTD1).
For data set [3], the target named is T1, SARS‐CoV‐2 Nsp15. In words: biochemical.
The target in data set [4] is T2, Nsp15. To be noted: measured particle size.
In data set [5] the test system is Vero‐E6 cells. The settings on record: cited from earlier work.
Data set [6] has as its system SARS‐CoV‐2 in Vero‐E6 cells. Further details: method as in Zaliani et al., 2022. To be noted: ref Zaliani et al., 2022, read-out: EC50 cytopathic (CPE) assay; cited from earlier work. For orientation: Damage to the host cells serves as the signal in cytopathic effect assays.
On the set-up of data set [7]: method as in Zhao et al., 2021. To be noted: ref Zhao et al., 2021; cited from earlier work.
A short description of data set [8]: Readout interference test: compound added after the enzymatic reaction ran to completion. To be noted: normalized to the DMSO control; compound added after 1 h Nsp15/substrate reaction.
In data set [9] the test system is SARS‐CoV Nsp15. To be noted: previously reported; ref Ortiz‐Alcantara et al., 2010; read-out: inhibition potency of SARS‐CoV Nsp15; cited from earlier work.
The mark [10] stands for this setting: 1 mM DTT buffer, confidence interval in brackets, read-out: IC50 + DTT (μM) (CI in μM).
Setting [11] is: DTT buffer (Table S1), read-out: IC50 +DTT.
Setting [12] is: hit confirmation, 10 µM, DTT buffer, read-out: HC inhibition % +DTT 10 µM.
Where [13] appears, read: primary screen, 10 µM (Table S1), read-out: PS Inhibition % 10 µM.
Setting [14] is: primary screen, 10 μM compound, 1 mM DTT buffer, normalized to 50 μM Congo red (100%) and DMSO (0%), read-out: PS inhibition % 10 μM (single point measurement).
Where [15] appears, read: 1 mM L-cysteine buffer, confidence interval in brackets, read-out: IC50 + L‐Cys (μM) (CI in μM).
Setting [16] is: hit confirmation, 10 µM, DTT buffer.
Setting [17] is: primary screen, 10 µM (Table S1).
Setting [18] is: primary screen, 10 μM compound, 1 mM DTT buffer, normalized to 50 μM Congo red (100%) and DMSO (0%).
Setting [19] is: DTT buffer, 30 min pre-incubation, read-out: IC50.
The mark [20] stands for this setting: L-cysteine buffer (Table S1), read-out: IC50 +L-Cys.

The structures appear in SMILES notation. Read-outs that look alike come from different tables or passages of the source. Some results are limits rather than exact numbers.

Turning to `CN(C)CCNc1nc2cc(O)ccc2c2c1C(=O)c1ccccc1-2.Cl.Cl` [TAS‐103 (dihydrochloride), 6‐[2‐(dimethylamino)ethylamino]‐ 3‐hydroxy‐7H‐indeno[2,1‐C]quinolin‐7‐one dihydrochloride], the inhibition at 10 µM was -33.9% in data set [1], 63.6% in data set [3] (setting [12]), 63.4% in data set [3] (setting [13]) and 63.4% in data set [3] (setting [14]). In data set [1], the “loss of the inhibition potency in L‐cysteine buffer” value is on record as “more than 50%”. Also, the “ΔT m°C nDSF” value in data set [2] was determined as 0.6 °C. Moreover, the IC50 in data set [3] (setting [10]) was 6.6 µM; in data set [3] (setting [11]) it was 6.55 µM.
Regarding `CC[N+](C)(CC)CCC[n+]1c(-c2ccccc2)c2cc(N)ccc2c2ccc(N)cc21.[I-].[I-]` [Propidium‐iodide], in data set [1], the “Inhibition % +L-Cys 10 µM” value was 68,98%. Further, the IC50 in data set [1] (setting [15]) is 9 µM; in data set [3] (setting [10]), 0.9 µM; in [3] (setting [11]), 0.95 µM. Besides, in data set [4], the “effect on the hexameric Nsp15 structure (DLS)” value is reported as “significantly affected the hexameric Nsp15 structure”. The “ΔT m°C nDSF” value in data set [2] was 0.7 °C. Also, the “HC inhibition % +DTT 10 µM” value in [3] (setting [16]) is reported as 85,94%. The “PS Inhibition % 10 µM” value in [3] (setting [17]) is reported as 83,07%. Further, the “PS inhibition % 10 μM (single point measurement)” value in data set [3] (setting [18]) is 83.1%.
Regarding `COc1cc2c(NC3CCN(C4CCCCC4)CC3)nc(N3CCCN(C(C)C)CC3)nc2cc1OCCCN1CCCCC1` [UNC0646], the inhibition at 10 µM in [1] is 91.3%; in data set [3] (setting [12]) it was 83.2%; in [3] (setting [13]) it was 75.3%; in data set [3] (setting [14]) it was 75.3%. The IC50 in data set [1] (setting [15]) was 0.7 µM; in data set [1] (L‐cysteine buffer, read-out: IC50) it was 0.73 µM; in [3] (setting [10]), 1.4 µM; in data set [3] (setting [19]) it was 1.36 µM. Also, the CC50 in [5] was 18600 nM. For the same molecule, in data set [6], the EC50 is 35400 nM. Moreover, in data set [2], the “ΔT m°C nDSF” value amounted to 0 °C.
For `COCCn1c2c([n+](Cc3cnccn3)c1C)C(=O)c1ccccc1C2=O` [YM‐155], the inhibition at 10 µM in data set [1] came to 12.4%; in data set [3] (setting [12]), 79.7%; in data set [3] (setting [13]) it was 74%; in [3] (setting [14]) it was 74%. In addition, in data set [1], the “loss of the inhibition potency in L‐cysteine buffer” value is “more than 50%”. Further, the “cytotoxicity in cell‐based assays” value in data set [7] is on record as “no cytotoxicity at tested concentrations”. Moreover, the “ΔT m°C nDSF” value in data set [2] came to 0.1 °C. Also, the results for the IC50 in [3] (setting [10]) and in data set [3] (setting [11]) were 1.2 µM and 1.23 µM, respectively.
As for `CN[C@H](CC(C)C)C(=O)N[C@H]1C(=O)N[C@@H](CC(N)=O)C(=O)N[C@H]2C(=O)N[C@H]3C(=O)N[C@H](C(=O)N[C@H](C(=O)O)c4cc(O)cc(O)c4-c4cc3ccc4O)[C@H](O[C@H]3C[C@](C)(N)[C@@H](O)[C@H](C)O3)c3ccc(c(Cl)c3)Oc3cc2cc(c3O[C@@H]2O[C@H](CO)[C@@H](O)[C@H](O)[C@H]2O[C@H]2C[C@](C)(NCc3ccc(-c4ccc(Cl)cc4)cc3)[C@@H](O)[C@H](C)O2)Oc2ccc(cc2Cl)[C@H]1O.O=P(O)(O)O.O=P(O)(O)O` [Oritavancin (diphosphate)], in data set [1], the “Inhibition % +L-Cys 10 µM” value is given as 91,07%. The IC50 was 1.2 µM in [1] (setting [15]), 1.24 µM in data set [1] (setting [20]), 2.5 µM in data set [3] (setting [10]) and 2.53 µM in [3] (setting [11]). Moreover, the “ΔT m°C nDSF” value in [2] was 0 °C. The “HC inhibition % +DTT 10 µM” value in data set [3] (setting [16]) was 92,52%. For the same molecule, the “PS Inhibition % 10 µM” value in data set [3] (setting [17]) is given as 86,71%. For the same molecule, the “PS inhibition % 10 μM (single point measurement)” value in data set [3] (setting [18]) is 86.7%.
As for `COc1cc2c(NC3CCN(C(C)C)CC3)nc(N3CCC(F)(F)CC3)nc2cc1OCCCN1CCCC1` [UNC0642], the inhibition at 10 µM in [1] is 80.2%; in data set [3] (setting [12]), 77.5%; in data set [3] (setting [13]), 56.9%; in [3] (setting [14]), 56.9%. In addition, the IC50 in [1] (setting [15]) amounted to 3.3 µM; in data set [1] (setting [20]) it was 3.27 µM; in data set [3] (setting [10]), 6.3 µM; in data set [3] (setting [11]), 6.27 µM. Besides, in data set [5] (tested concentration range up to 32 μM, ref Zaliani et al., 2022), the CC50 was greater than 32000 nM. Further, in [6], the EC50 is 16700 nM.
With `CC[n+]1c(-c2ccccc2)c2cc(N)ccc2c2ccc(N)cc21` [Homidium bromide], the “quenching ratio of the fluorescence signal” value in data set [8] turned out to be 26.13%.
On to `Nc1c(/N=N/c2ccc(-c3ccc(/N=N/c4cc(S(=O)(=O)O)c5ccccc5c4N)cc3)cc2)cc(S(=O)(=O)O)c2ccccc12` [Congo red], for which the results for the IC50 in [9] and in data set [3] (setting [19]) were 2500 nM and 7.5 µM, respectively.

In general, inhibition refers to the drop in the measured response relative to a control, in per cent. As a reminder, the CC50 is the concentration giving 50% cytotoxicity. Usually EC50 stands for the concentration giving half of the maximal effect.
